In the supplement of paper PMC10132981, “Formate overflow drives toxic folate trapping in MTHFD1 inhibited cancer cells” (Nature Metabolism, 2023):
Where “and” joins values, the source holds several entries; their conditions need not be identical. Equal values may be shown once.

Tests used:
PA-TU-8988T = experiment: EC50 for viability (resazurin, 96 h); conditions: DMEM+GlutaMAX (5% dFBS, 1% P/S)
SW620 = experiment: cell viability relative to lowest-dose well (resazurin, 96 h); higher = more viable; conditions: RPMI + 10% FBS
Method in brief: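 Compounds from 10 mM DMSO stocks were dispensed as dilution series onto HCT116 (500 cells/well) or SW620 (1,000 cells/well) cells growing in 384-well plates in 50 µl RPMI, 10% FBS and a metabolite supplement. Plates were incubated 96 h at 37 °C, 5% CO2, then resazurin (10 µg ml^−1) was added and its conversion to resorufin read by fluorescence at 595 nm after 5 h. Viability is shown as percent of the lowest-dose well for independent replicate cultures.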

SW620 MTHFD2-/- = experiment: cell viability relative to vehicle (resazurin, 96 h); higher = more viable; conditions: base medium: RPMI + dialysed FBS
Description: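 SW620 WT or MTHFD2-/- cells were treated for 96 h with a compound dilution series (log10 M) in RPMI with normal or dialysed FBS. Viability was read by resazurin and is given as % of vehicle.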

CN(Cc1cnc2nc(N)nc(N)c2n1)c1ccc(C(=O)N[C@@H](CCC(=O)O)C(=O)O)cc1 [methotrexate]
Conditions | EC50 for viability [nM] | cell viability [%]
PA-TU-8988T, metabolite supplement: Hypoxanthine | 237 | –
PA-TU-8988T, metabolite supplement: Sodium Formate | 85.5 | –
PA-TU-8988T, metabolite supplement: Thymidine | 50 | –
SW620 MTHFD2-/-, log10 compound concentration (M): -6, supplement / serum: 50 μM Hypoxanthine | – | 6.45
SW620 MTHFD2-/-, log10 compound concentration (M): -6, supplement / serum: 50 μM Thymidine | – | 6.68
SW620 MTHFD2-/-, log10 compound concentration (M): -6, supplement / serum: 50 μM Thymidine + 50 μM Hypoxanthine | – | 111
SW620 MTHFD2-/-, log10 compound concentration (M): -6, supplement / serum: Hypoxanthine | – | 6.76
SW620 MTHFD2-/-, log10 compound concentration (M): -6, supplement / serum: Hypoxanthine+Sodium Formate | – | 6.18
SW620 MTHFD2-/-, log10 compound concentration (M): -6, supplement / serum: Hypoxanthine+Sodium Formate+Thymidine | – | 93.3
SW620 MTHFD2-/-, log10 compound concentration (M): -6, supplement / serum: No metabolite | – | 7.7
SW620 MTHFD2-/-, log10 compound concentration (M): -6, supplement / serum: Sodium Formate | – | 7.05
SW620 MTHFD2-/-, log10 compound concentration (M): -6, supplement / serum: Vehicle | – | 7.38
SW620 MTHFD2-/-, log10 compound concentration (M): -6.47712, supplement / serum: 50 μM Hypoxanthine | – | 6.99
SW620 MTHFD2-/-, log10 compound concentration (M): -6.47712, supplement / serum: 50 μM Thymidine | – | 7.63
SW620 MTHFD2-/-, log10 compound concentration (M): -6.47712, supplement / serum: 50 μM Thymidine + 50 μM Hypoxanthine | – | 115
SW620 MTHFD2-/-, log10 compound concentration (M): -6.47712, supplement / serum: Hypoxanthine | – | 7.12
SW620 MTHFD2-/-, log10 compound concentration (M): -6.47712, supplement / serum: Hypoxanthine+Sodium Formate | – | 6.79
SW620 MTHFD2-/-, log10 compound concentration (M): -6.47712, supplement / serum: Hypoxanthine+Sodium Formate+Thymidine | – | 112
SW620 MTHFD2-/-, log10 compound concentration (M): -6.47712, supplement / serum: No metabolite | – | 7.99
SW620 MTHFD2-/-, log10 compound concentration (M): -6.47712, supplement / serum: Sodium Formate | – | 7.19
SW620 MTHFD2-/-, log10 compound concentration (M): -6.47712, supplement / serum: Vehicle | – | 7.78
SW620 MTHFD2-/-, log10 compound concentration (M): -6.95424, supplement / serum: 50 μM Hypoxanthine | – | 7.25
SW620 MTHFD2-/-, log10 compound concentration (M): -6.95424, supplement / serum: 50 μM Thymidine + 50 μM Hypoxanthine | – | 111

cell viability, SW620
Conditions | 0.001 µM | 0.00278 µM | 0.00774 µM | 0.0215 µM | 0.0599 µM | 0.167 µM | 0.464 µM | 1.29 µM | 3.59 µM | 10 µM
metabolite supplement: 1uM folinic acid | 101% | 101% | 100% | 100% | 96.1% | 85.3% | 59.2% | 51.8% | 48.7% | 31.6%
metabolite supplement: 50uM thymidine | 95.8% | 96.1% | 73.1% | 55% | 30.1% | 26.8% and 27.8% | 27.5% | 26% | 26.7% | 26.6%
metabolite supplement: 50uM thymidine + 1uM folinic acid | 102% | 102% | 101% | 103% | 102% | 85.4% | 68.2% | 49.2% | 43.4% | 39.9%
metabolite supplement: 50uM thymidine + 250uM folic acid | – | – | 98.6% | 94.3% | 79.3% | 45.2% | 37.4% | 37.2% | 35.5% | 35.5%
metabolite supplement: 250uM folic acid | – | – | 98.4% | 89.1% | 78% | 47.8% | 29.7% | 27.5% | 27.3% | 27.3%
metabolite supplement: vehicle | 96.5% | 93.7% | 70.1% | 39.2% | 29.9% and 27.9% | 32% and 27.2% | 27.4% | 26.9% | 25.7% | 26%
